From patent US20230060422A1, “COMBINATION TREATMENT OF LIVER DISEASES USING INTEGRIN INHIBITORS” (NOVARTIS AG, priority 2019, published 2023)
Entries after “also recorded” stand apart in the source; their conditions may differ. Read-outs that look alike come from different tables or passages of the source. Blank lines part the entries; values can stand above or below the molecule they belong to.

How the values were obtained:
CDAHFD NASH mouse model [1] = experiment: 10-week CDAHFD study, comparison with CWHM12; type: in vivo; settings: 4 weeks treatment in 10-week CDAHFD study
Method: (§1) CDAHFD injury is a rodent model of NASH displaying liver fat accumulation, inflammation, and fibrosis (Matsumoto 2013). Three types of studies were performed: 1) prophylactic, Compound 1 in an abbreviated 3-week CDAHFD model; 2) therapeutic, Compound 1 for 6 weeks in the 11- to 12-week CDAHFD model; and 3) Compound 1 for 4 weeks in a 10-week CDAHFD model.
Although pan-αv inhibition with CWHM12 reduced pSMAD and OHP levels, selective αvβ1 inhibition was sufficient for antifibrotic activity.

CDAHFD NASH mouse model [2] = experiment: Therapeutic 11- to 12-week CDAHFD injury studies; type: in vivo
Method: as §1
Compound 1 was tested therapeutically in 11- to 12-week CDAHFD injury studies at medium, high and highest doses across 3 independent studies.

[3] = tested on: murine CCl4 model of liver fibrosis; experiment: 3-week murine CCl4 model of liver fibrosis; type: in vivo, mice; settings: all doses, dosed during the final week of injury
Method: Antifibrotic activity of Compound 1 was established in an abbreviated, 3-week, murine CCl4 model of liver fibrosis. CCl4 is a hepatotoxin that when injected into mice results in liver fibrosis (Constandinou 2005). Compound 1 was dosed during the final week of injury.

human integrin αvβ6 [4] = molecular target: T1, human integrin αvβ6 (Homo sapiens, UniProt P06756+P18564); experiment: Solid phase integrin binding assay (TGFβ1 LAP binding)
T1 sequence (P06756 31-992 limits assumed): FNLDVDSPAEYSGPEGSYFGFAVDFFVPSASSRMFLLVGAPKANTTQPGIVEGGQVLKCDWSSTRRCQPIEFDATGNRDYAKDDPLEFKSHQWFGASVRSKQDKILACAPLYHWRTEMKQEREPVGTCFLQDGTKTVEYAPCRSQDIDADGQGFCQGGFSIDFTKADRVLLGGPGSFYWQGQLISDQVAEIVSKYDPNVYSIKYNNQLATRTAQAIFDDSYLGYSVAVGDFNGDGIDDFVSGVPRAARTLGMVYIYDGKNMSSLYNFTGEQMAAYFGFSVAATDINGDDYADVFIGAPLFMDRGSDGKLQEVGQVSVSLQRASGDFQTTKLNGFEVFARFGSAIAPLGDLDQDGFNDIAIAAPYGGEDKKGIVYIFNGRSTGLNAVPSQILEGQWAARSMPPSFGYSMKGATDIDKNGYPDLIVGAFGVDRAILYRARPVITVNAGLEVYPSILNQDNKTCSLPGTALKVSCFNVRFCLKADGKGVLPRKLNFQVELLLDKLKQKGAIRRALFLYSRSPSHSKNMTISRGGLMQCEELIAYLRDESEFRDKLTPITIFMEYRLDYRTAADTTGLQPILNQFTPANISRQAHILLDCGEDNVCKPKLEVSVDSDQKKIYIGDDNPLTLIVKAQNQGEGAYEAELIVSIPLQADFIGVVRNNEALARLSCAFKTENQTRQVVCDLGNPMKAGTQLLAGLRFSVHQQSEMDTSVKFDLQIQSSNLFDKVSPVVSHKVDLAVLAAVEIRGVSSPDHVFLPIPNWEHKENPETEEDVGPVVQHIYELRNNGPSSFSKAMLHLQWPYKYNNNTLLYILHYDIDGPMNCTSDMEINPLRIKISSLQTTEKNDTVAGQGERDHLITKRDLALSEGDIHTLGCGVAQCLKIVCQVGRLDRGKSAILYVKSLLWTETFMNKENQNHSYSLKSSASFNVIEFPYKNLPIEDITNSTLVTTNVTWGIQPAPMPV
T1 sequence (P18564 22-707 limits assumed): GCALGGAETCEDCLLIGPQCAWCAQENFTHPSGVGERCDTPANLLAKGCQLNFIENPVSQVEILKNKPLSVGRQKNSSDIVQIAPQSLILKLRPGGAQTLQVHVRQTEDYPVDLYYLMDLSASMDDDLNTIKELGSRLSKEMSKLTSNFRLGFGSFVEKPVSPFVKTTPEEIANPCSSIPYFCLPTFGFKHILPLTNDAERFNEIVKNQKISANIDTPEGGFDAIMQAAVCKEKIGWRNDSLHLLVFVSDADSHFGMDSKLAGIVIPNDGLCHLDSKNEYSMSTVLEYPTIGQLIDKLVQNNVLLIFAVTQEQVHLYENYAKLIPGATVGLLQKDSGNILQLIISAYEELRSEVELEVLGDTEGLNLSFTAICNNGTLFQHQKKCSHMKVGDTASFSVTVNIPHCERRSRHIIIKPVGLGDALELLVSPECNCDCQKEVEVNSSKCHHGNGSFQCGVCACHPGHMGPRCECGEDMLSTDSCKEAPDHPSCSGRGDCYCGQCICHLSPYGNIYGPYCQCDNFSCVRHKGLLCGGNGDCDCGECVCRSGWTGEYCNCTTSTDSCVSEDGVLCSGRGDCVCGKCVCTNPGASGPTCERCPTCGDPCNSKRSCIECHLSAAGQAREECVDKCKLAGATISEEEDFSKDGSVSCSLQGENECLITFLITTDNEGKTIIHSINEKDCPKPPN
Method: (§2) Microplates were coated with recombinant human integrin αVβ1 or αVβ6 (2 μg/mL) in PBS (100 μL/well 25° C., overnight). The coating solution was removed, washed with wash buffer (0.05% Tween 20; 0.5 mM MnCl2; in 1×TBS). The plate was blocked with 200 μL/well of Block Buffer (1% BSA; 5% sucrose; 0.5 mM MnCl2; in 1×TBS) at 37° C. for 2 h. Dilutions of Compound 1 and recombinant TGFβ1 LAP (0.67 μg/mL) in binding buffer (0.05% BSA; 2.5% sucrose; 0.5 mM MnCl2; in 1×TBS) were added. The plate was incubated for 2 hours at 25° C., washed, and incubated for 1 hour with Biotin-Anti-hLAP. Bound antibody was detected by peroxidase-conjugated streptavidin. The IC50 values for the testing compound were calculated by a four-parameter logistic regression.

human integrin αVβ1 [5] = molecular target: T2, human integrin αVβ1 (Homo sapiens, UniProt P05556+P06756); experiment: as above
T2 sequence (P06756 31-992 limits assumed): as the sequence (P06756 31-992 limits assumed) above
T2 sequence (P05556 21-728 limits assumed): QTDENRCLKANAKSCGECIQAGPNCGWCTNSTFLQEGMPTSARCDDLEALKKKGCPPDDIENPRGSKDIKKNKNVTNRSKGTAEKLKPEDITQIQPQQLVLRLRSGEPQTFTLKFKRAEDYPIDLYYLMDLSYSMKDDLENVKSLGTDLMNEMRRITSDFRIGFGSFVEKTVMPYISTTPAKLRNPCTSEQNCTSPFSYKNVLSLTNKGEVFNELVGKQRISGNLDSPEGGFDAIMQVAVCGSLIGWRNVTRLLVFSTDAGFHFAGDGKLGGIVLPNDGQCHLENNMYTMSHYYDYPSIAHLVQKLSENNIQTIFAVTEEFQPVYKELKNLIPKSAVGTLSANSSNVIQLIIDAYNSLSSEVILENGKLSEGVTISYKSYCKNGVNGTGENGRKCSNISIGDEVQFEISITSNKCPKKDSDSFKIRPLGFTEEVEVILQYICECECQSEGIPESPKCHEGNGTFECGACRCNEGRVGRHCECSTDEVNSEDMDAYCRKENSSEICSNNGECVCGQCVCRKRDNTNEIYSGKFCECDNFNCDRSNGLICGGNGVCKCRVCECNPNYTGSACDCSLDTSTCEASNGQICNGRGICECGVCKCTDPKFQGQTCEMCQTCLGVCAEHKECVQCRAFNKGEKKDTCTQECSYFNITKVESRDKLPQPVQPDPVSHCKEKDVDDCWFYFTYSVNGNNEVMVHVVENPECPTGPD
Method: as §2

[6] = tested on: precision cut liver slices from cirrhotic NASH patient explants; experiment: Profibrotic gene expression and fibrosis biomarkers in precision cut liver slices; type: cell-based, human; design: reduction of gene expression of collagen, type 1, alpha 1 (COL1A1) / reduction of the level of FBN-C in culture media / reduction of PRO-C1 in culture media / reduction of PRO-C3 in culture media / reduction of PRO-C4 in culture media: concentration or dose not given beside the values
Method: The ability of Compound 1 to inhibit the expression of profibrotic genes and decrease biomarkers of fibrosis was measured in precision cut liver slices generated using cirrhotic liver tissues from NASH patient explants and from rodent models of liver fibrosis and NASH.
Data are mean +/−standard deviation from the 5 cirrhotic NASH patients. DMSO was used as the solvent and utilized at a constant concentration (0.1%) across the different groups. […] was used as a positive control.

human integrin αvβ6 [7] = molecular target: T1, human integrin αvβ6; experiment: ALPHASCREEN proximity-based integrin binding assay; design: 6xHis (on the heterodimer); settings: read-out: Proximity-Based Assy IC50, αvβ6
Method: (§3) Compound 1 was tested for αVβ1 or αVβ6 integrin biochemical potency using the ALPHASCREEN® (Perkin Elmer, Waltham, Mass.) proximity-based assay (a bead-based, non-radioactive Amplified Luminescent Proximity Homogeneous Assay) as described previously (Ullman E F et al., Luminescent oxygen channeling immunoassay: Measurement of particle binding kinetics by chemiluminescence. Proc. Natl. Acad. Sci. USA, Vol. 91, pp. 5426-5430, June 1994). To gauge the potency of inhibitors of binding to human integrin αVβ1 or αvβ6, the inhibitor compound and the integrin were incubated together with recombinant TGFβ1 LAP and biotinylated anti-LAP antibody plus acceptor and donor beads, following the manufacturer's recommendations. The donor beads were coated with streptavidin. […] All incubations occurred at room temperatures in 50 mM Tris-HCl, pH 7.5, 0.1% BSA supplemented with 1 mM each CaCl2 and MgCl2. The order of reagent addition was as follows: 1. αVβ1 or αVβ6 integrin, test inhibitor Compound 1, LAP, biotinylated anti-LAP antibody and acceptor beads were all added together. 2. After 2 hours, donor beads were added. After another 30 min incubation, samples were read.

human integrin αVβ1 [8] = molecular target: T2, human integrin αVβ1; experiment: ALPHASCREEN proximity-based integrin binding assay; design: 6xHis (on the heterodimer); settings: read-out: Proximity-Based Assy IC50, αvβ1
Method: as §3

CDAHFD NASH mouse model [9] = experiment: Prophylactic abbreviated 3-week CDAHFD NASH model; type: in vivo; settings: high dose
Method: as §1

[10] = tested on: healthy male and female participants; experiment: First-in-human single and multiple ascending dose study; type: in vivo; settings: single and multiple (7 days) ascending doses, thus far
Method: Part A of the study was a first-in-human, randomized, double-blind, placebo-controlled, parallel-group, single ascending dose study of the safety, tolerability, and PK of Compound 1 in a maximum of […] healthy male and female (non-childbearing potential) participants. Forty participants will be enrolled in up to 5 sequential cohorts.
Part B of the study is on-going and was initiated after the first 2 cohorts in Part A of the study had been completed. The doses in Part B were determined from Part A of the study and were not higher than the highest dose that was administered in Part A of the study.
Part B of the study is a randomized, double-blind, placebo-controlled, parallel-group, multiple ascending dose study of the PK, PD, safety, and tolerability of Compound 1 administered for 7 days in a maximum of 40 healthy male and female (non-childbearing potential) participants.

[11] = tested on: Patients with histologically confirmed NASH (F1-F3) or phenotypic NASH; experiment: Placebo-controlled, randomized Phase 2a study of licogliflozin, 12 weeks (NCT03205150); type: in vivo, human
Method: Method: Patients with histologically confirmed NASH (F1-F3) or phenotypic NASH (BMI≥27 kg/m^2 in non-Asians or ≥23 kg/m^2 in Asians, ALT≥50 (males) or ≥35 (females) and type 2 diabetes (T2DM)) received daily oral licogliflozin at 150 mg, 30 mg or placebo in a 2:2:1 ratio for 12 weeks (NCT03205150). The primary endpoint was the effect on ALT level after 12 weeks of treatment. Secondary endpoints include improvement in body weight, liver fat content and AST, amongst others. The study size was 110 of which 77 completed (placebo (n=18); licogliflozin 30 mg (n=25) and licogliflozin 150 mg (n=34)) and are included in the interim analysis.

[12] = tested on: healthy subjects, patients with T2DM, obese patients; settings: cited from earlier work
[13] = all doses (medium, high, highest), therapeutic, 3 independent studies
[14] = did not achieve statistical significance
[15] = two days of treatment, slices from 5 cirrhotic NASH patients
[16] = 30 mg, 12 weeks, interim analysis
[17] = 150 mg, 12 weeks, interim analysis

Structure (SMILES): CC(C)(C)c1cc(Br)cc([C@H](CC(=O)O)NC(=O)CNC(=O)c2cc(O)cc(NC3=NCC(O)CN3)c2)c1 (stereo partly drawn) [CWHM12, (3S)—N-[3-hydroxy-5-[(1,4,5,6-tetrahydro-5-hydroxy-2-pyrimidinyl)amino]benzoyl] glycyl-3-[3-bromo-5-(1,1-dimethylethyl)phenyl]-β-alanine]
reduction of OHP concentrations (CDAHFD NASH mouse model [1]): 30%
reduction of pSMAD3 levels (CDAHFD NASH mouse model [1]): 61%

IC50 (human integrin αvβ6 [4]): < 50 nM
IC50 (human integrin αVβ1 [5]): < 50 nM
metalloproteinase inhibitor 1 (TIMP1) gene expression [6, 15]: reduced
IC50 (human integrin αvβ6 [7]): < 50 nM
IC50 (human integrin αVβ1 [8]): 50 to 250 nM
Structure (SMILES): CC1(C(=O)N[C@@H](CCCCCCCc2ccc3c(n2)NCCC3)C(=O)O)CCOCC1 [Compound 1, (S)-2-(4-methyltetrahydro-2H-pyran-4-carboxamido)-9-(5,6,7,8-tetrahydro-1,8-naphthyridin-2-yl)nonanoic acid]
reduction of hepatic OHP (CDAHFD NASH mouse model [2]; [13]): up to 38%
reduction of pSMAD3 levels (CDAHFD NASH mouse model [2]; [13]): up to 57%
Collagen gene expression (Col1a1 and Col3a1) (CDAHFD NASH mouse model [2]; high and highest doses): significantly reduced
gene expression of profibrotic markers Ctgf, Mmp-2, and Timp1 (CDAHFD NASH mouse model [2]; high and highest doses): significantly reduced
Gene expression of Acox1 and Ehhadh (CDAHFD NASH mouse model [2]; mouse, in vivo): significantly increased
collagen area (histological analysis) (CDAHFD NASH mouse model [2]; mouse, in vivo): significant reduction
composite fibrosis score (second harmonic generation imaging): quantity and quality of the collagen fibers (CDAHFD NASH mouse model [2]; mouse, in vivo): significant reduction
reduction in OHP concentration (CDAHFD NASH mouse model [2]; separate sentence of b235, dose not stated): 24%
Levels of phosphorylated SMAD3 (pSMAD3)/SMAD3 in the liver [3]: significantly reduced
hepatic Col1a1, Col1a2, and Col3a1 expression [3]: significant reduction; also recorded: significantly reduced
reduction of PRO-C1 in culture media [6, 14]: 34%
reduction of PRO-C3 in culture media [6, 14]: 16%
reduction of PRO-C4 in culture media [6, 14]: 15%
reduction of the level of FBN-C in culture media ([6]; significant): 26%
reduction of gene expression of collagen, type 1, alpha 1 (COL1A1) [6, 15]: 39%
reduction of OHP concentrations (CDAHFD NASH mouse model [1]): 24%
reduction of pSMAD3 levels (CDAHFD NASH mouse model [1]): 40%
expression of Ehhadh (CDAHFD NASH mouse model [9]; both studies): significantly elevated
gene expression of collagens (CDAHFD NASH mouse model [9]; one of the two studies): Significantly reduced
decrease of pSMAD3 levels in the liver (CDAHFD NASH mouse model [9]; prophylactic, 3-week CDAHFD): 19%
reduction of hepatic OHP concentrations (CDAHFD NASH mouse model [9]; prophylactic, both studies): ~30%
tolerability in healthy volunteers [10]: well tolerated

Structure (SMILES): CCc1ccc([C@@H]2O[C@H](CO)[C@@H](O)[C@H](O)[C@H]2O)cc1Cc1ccc2c(c1)OCCO2 [licogliflozin, (2S,3R,4R,5S,6R)-2-(3-((2,3-dihydrobenzo[b][1,4]dioxin-6-yl)methyl)-4-ethylphenyl)-6-(hydroxymethyl)tetrahydro-2H-pyran-3,4,5-triol]
Absolute reduction in liver fat [11, 16]: 2.71%
Diarrhea (most common adverse event), patients reporting [11, 16]: 40%
Placebo adjusted reduction in HbA1c (absolute change) [11, 16]: 0.81%
Relative reduction in liver fat content [11, 16]: 10%
patients achieving at least 5% absolute reduction in liver fat [11, 16]: 43.5%
proportion of patients with at least a 30% relative reduction in liver fat content [11, 16]: 39.5%
reduction in AST [11, 16]: 23%
reduction in GGT [11, 16]: 26%
placebo-adjusted reduction in GGT ([11]; 30 mg, Week 12, full analysis): 24%
placebo-adjusted reduction in serum ALT ([11]; 30 mg, Week 12, full analysis): 21%
placebo-adjusted reduction in serum AST ([11]; 30 mg, Week 12, full analysis): 21%
Absolute reduction in liver fat [11, 17]: 4.45%
Diarrhea (most common adverse event), patients reporting [11, 17]: 76.5%
Placebo adjusted reduction in HbA1c (absolute change) [11, 17]: 0.96%
Relative reduction in liver fat content [11, 17]: 22%
patients achieving at least 5% absolute reduction in liver fat [11, 17]: 63.3%
proportion of patients with at least a 30% relative reduction in liver fat content [11, 17]: 66.7%
reduction in AST [11, 17]: 30%
reduction in GGT [11, 17]: 32%
placebo-adjusted reduction in GGT ([11]; 150 mg, Week 12, full analysis): 36%
placebo-adjusted reduction in serum ALT ([11]; 150 mg, Week 12, full analysis): 32%
placebo-adjusted reduction in serum AST ([11]; 150 mg, Week 12, full analysis): 32%
safety and tolerability ([11]; 12 weeks of treatment): safe and tolerable
absolute and relative liver fat content ([11]; 12 weeks, full analysis): Dose-dependent decreases
HOMA-IR (insulin sensitivity) ([11]; Week 12, full analysis): improvements
HbA1c (glycemic control) ([11]; Week 12, full analysis): improvements
body weight compared with placebo ([11]; Week 12, full analysis): Statistically significant reductions
waist circumference compared with placebo ([11]; Week 12, full analysis): Statistically significant reductions
Placebo adjusted reduction in body weight ([11]; both doses (150 mg and 30 mg), 12 weeks, interim analysis): ~4%
weight loss in obese patients ([12]; 150 mg daily dose, 12 week treatment): ~6%
safety and tolerability ([12]; 150 mg once daily, twelve weeks, normoglycemic and dysglycemic subjects): generally safe and well tolerated
dose-limiting toxicity ([12]; 150 mg once daily, twelve weeks): diarrhea
safety and tolerability ([12]; healthy subjects and patients with T2DM): safe and tolerated
pharmacokinetic profile ([12]; human, in vivo): favorable pharmacokinetic profile
placebo-adjusted weight loss ([12]; over 2 weeks, healthy subjects and patients with T2DM): up to 3%
